Measurements reported in patent publication US12404283B2, “c-MYC mRNA translation modulators and uses thereof in the treatment of cancer” (Anima Biotech Inc., priority 2022, dated 2025).
Where a name gives a salt, the structure may show the parent alone.

Each compound was assayed on c-Myc (assay: c-Myc immunofluorescence assay). Details: A549 cells, 24 hours treatment, anti-c-Myc immunofluorescence.
Assay type: cell-based, human
Experimental: A549 human non-small cell lung carcinoma cells were treated for 24 hours with increasing compound concentration, cells were fixed and stained with a nuclei stain (DAPI) and anti-c-Myc fluorescent antibody. The c-Myc signal was quantified by image analysis, and data was exported and analyzed using TIBCO Spotfire® (TIBCO Corporation). Dose response curves were generated and fitted with logaristic regression to calculate potency (EC50 values). Potency values are presented in Table 2 for all compounds and are shown for selected compounds (FIG. 4).
A549 cells were grown in 384-wells plates (Perkin Elmer, Cat. 6057300) for 48 hours, treated with compounds and then fixed for 20 min in 4% paraformaldehyde. After that permeabilization was done using 0.1% Triton X-100 in PBS for 20 min. Primary anti-c-Myc antibody (Abcam, ab32072) staining was performed for 90 min at room temperature. Cells then were washed twice with PBS and incubated with secondary antibody (Abcam, ab150075) for 90 min at room temperature. Nuclei were stained with DAPI for 10 min and washed twice with PBS.
Cell images were taken with Operetta (Perkin Elmer, USA), a wide-field fluorescence microscope at 20× magnification. After acquisition, the images were transferred to Columbus software (Perkin-Elmer) for image analysis. In Columbus, cells were identified by their nucleus, using the “Find Nuceli” module and cytoplasm was detected based on the secondary antibody channel. Subsequently, the fluorescent signal was enumerated in the identified cell region. Then data was exported to a data analysis and visualization software, Tibco Spotfire, USA.

Compound | Myc Efficacy (−LogEC50)
CNC(=O)c1ccc(-c2cn3c(n2)sc2cc(C(=O)NCC4CC4(F)F)ccc23)cc1 (stereo not shown) [compound 259, N-((2,2-difluorocyclopropyl)methyl)-2-(4-(methylcarbamoyl)phenyl) benzo[d]imidazo[2,1-b]thiazole-7-carboxamide] | + (+ >3 and <5)
O=C(NCCCN1CCC(F)CC1)c1ccc2c(c1)sc1nc(-c3ccc(C4COCCN4)cc3F)cn12 (stereo not shown) [Compound 481, 2-(2-fluoro-4-(morpholin-3-yl)phenyl)-N-(3-(4-fluoropiperidin-1-yl)propyl)benzo[d]imidazo[2,1-b]thiazole-7-carboxamide] | +++ (+++ ≥6)
CCC(CNC(=O)c1ccc2c(c1)sc1nc(-c3ccc(C(=O)NC)cc3)cn12)N(C)C (stereo not shown) [compound 208, N-(2-(dimethylamino)butyl)-2-(4-(methylcarbamoyl)phenyl) benzo[d]imidazo[2,1-b]thiazole-7-carboxamide] | + (+ >3 and <5)
NC(=O)c1ccc2c(c1)sc1nc(-c3ccc(C4CC(C(F)F)CN4)cc3F)cn12 (stereo not shown) [compound 540, 2-(4-(4-(difluoromethyl)pyrrolidin-2-yl)-2-fluorophenyl)benzo[d]imidazo [2,1-b]thiazole-7-carboxamide] | +++ (+++ ≥6)
O=C(NC1CCOCC1)c1ccc2c(c1)sc1nc(-c3ccc(C4CCCN4)cc3F)cn12 (stereo not shown) [Compound 510, 2-(2-fluoro-4-(pyrrolidin-2-yl)phenyl)-N-(tetrahydro-2H-pyran-4-yl)benzo[d]imidazo[2,1-b]thiazole-7-carboxamide] | +++ (+++ ≥6)
NCc1c(F)cc(-c2cn3c(n2)sc2cc(C(=O)NCCCN4CCCCC4)ccc23)cc1Cl [compound 384, 2-(4-(aminomethyl)-3-chloro-5-fluorophenyl)-N-(3-(piperidin-1-yl)propyl)benzo[d]imidazo [2,1-b]thiazole-7-carboxamide] | ++ (++ ≥5 and <6)
O=C(NCCCN1CCC(F)CC1)c1cc2sc3nc(-c4ccc([C@H]5CCCN5)cc4F)cn3c2cn1 [Compound 509R, (R)-2-(2-fluoro-4-(pyrrolidin-2-yl)phenyl)-N-(3-(4-fluoropiperidin-1-yl)propyl)imidazo[2′,1′:2,3]thiazolo[4,5-c]pyridine-7-carboxamide] | +++ (+++ ≥6)
O=C(NCCCN1CCCCC1)c1ccc2c(c1)sc1nc(-c3ccc([C@@H]4CCCN4)cc3F)cn12 [compound 418, (S)-2-(2-fluoro-4-(pyrrolidin-2-yl)phenyl)-N-(3-(piperidin-1-yl)propyl)benzo[d]imidazo [2,1-b]thiazole-7-carboxamide] | +++ (+++ ≥6)
O=C(NCCCN1CCC(F)CC1)c1ccc2c(c1)sc1nc(-c3ccc(C4CCCN4)c(F)c3F)cn12 (stereo not shown) [Compound 476, 2-(2,3-difluoro-4-(pyrrolidin-2-yl)phenyl)-N-(3-(4-fluoropiperidin-1-yl)propyl)benzo[d]imidazo[2,1-b]thiazole-7-carboxamide] | +++ (+++ ≥6)
CCN(CC)CCCNC(=O)c1ccc2c(c1)sc1nc(-c3ccc(C(=O)NC)cc3)nn12 [compound 328, N-(3-(diethylamino)propyl)-2-(4-(methylcarbamoyl)phenyl) benzo[4,5]thiazolo[3,2-b][1,2,4]triazole-6-carboxamide] | ++ (++ ≥5 and <6)
CCN(CC)CCCNC(=O)c1ccc2c(c1)sc1nc(-c3cccc(N4CCCC4)c3)cn12 [compound 171, N-(3-(diethylamino)propyl)-2-(3-(pyrrolidin-1-yl)phenyl)benzo[d]imidazo [2,1-b]thiazole-7-carboxamide] | ++ (++ ≥5 and <6)
CNC(=O)c1ccc(-c2cn3c(n2)sc2cc(C(=O)N[C@H]4c5ccccc5C[C@H]4O)ccc23)cc1 [compound 263, N-((1S,2R)-2-hydroxy-2,3-dihydro-1H-inden-1-yl)-2-(4-(methylcarbamoyl)phenyl) benzo[d]imidazo[2,1-b]thiazole-7-carboxamide] | − (− ≤3)
CCN(CC)CCCNC(=O)c1ccc2c(c1)sc1nc(-c3ccc(C(=O)NCCO)cc3)cn12 [compound 285, N-(3-(diethylamino)propyl)-2-(4-((2-hydroxyethyl)carbamoyl)phenyl)benzo[d]imidazo[2,1-b]thiazole-7-carboxamide] | + (+ >3 and <5)
CCN(CC)CCCNC(=O)c1ccc2c(c1)sc1nc(-c3ccc(C(=O)NC)cc3)cn12 [compound 125, N-(3-(diethylamino)propyl)-2-(4-(methylcarbamoyl)phenyl) benzo[d]imidazo[2,1-b]thiazole-7-carboxamide] | ++ (++ ≥5 and <6)
CCN(CC)CCCNC(=O)c1ccc2c(c1)sc1nc(-c3cccc(C)c3)cn12 [compound 118, N-(3-(diethylamino)propyl)-2-(m-tolyl)benzo[d]imidazo [2,1-b]thiazole-7-carboxamide] | +++ (+++ ≥6)
CN1CCC(NC(=O)c2ccc3c(c2)sc2nc(-c4ccc(C5CCNCC5O)cc4F)cn23)CC1 (stereo not shown) [compound 546, 2-(2-fluoro-4-(3-hydroxypiperidin-4-yl)phenyl)-N-(1-methylpiperidin-4-yl)benzo[d]imidazo[2,1-b]thiazole-7-carboxamide] | +++ (+++ ≥6)
CNC(=O)c1ccc(-c2cn3c(n2)sc2cc(C(=O)N[C@@H]4CCCN(C)C4)ccc23)cc1 [compound 301, (R)-2-(4-(methylcarbamoyl)phenyl)-N-(1-methylpiperidin-3-yl)benzo[d]imidazo[2,1-b]thiazole-7-carboxamide] | + (+ >3 and <5)
C#CCCC1(CCOc2ccccc2-c2cn3c(n2)sc2cc(C(=O)NCCCN4CCCCC4)ccc23)N=N1 [compound 326, 2-(2-(2-(3-(but-3-yn-1-yl)-3H-diazirin-3-yl)ethoxy)phenyl)-N-(3-(piperidin-1-yl)propyl)benzo[d]imidazo [2,1-b]thiazole-7-carboxamide] | ++ (++ ≥5 and <6)
NCc1ccc(-c2cn3c(n2)sc2cc(C(=O)NCCCN4CCCCC4)ccc23)c(F)c1 [compound 374, 2-(4-(aminomethyl)-2-fluorophenyl)-N-(3-(piperidin-1-yl)propyl)benzo[d]imidazo [2,1-b]thiazole-7-carboxamide] | +++ (+++ ≥6)
NCc1ccc(-c2cn3c(n2)sc2cc(C(=O)NCCCN4CCCCC4)ccc23)cc1 [compound 290, 2-(4-(aminomethyl)phenyl)-N-(3-(piperidin-1-yl)propyl)benzo[d]imidazo [2,1-b]thiazole-7-carboxamide] | +++ (+++ ≥6)
CCN(CC)CCCNC(=O)c1ccc2c(c1)sc1nc(-c3ccc(CO)cc3)cn12 [compound 277, N-(3-(diethylamino)propyl)-2-(4-(hydroxymethyl)phenyl) benzo[d]imidazo[2,1-b] thiazole-7-carboxamide] | ++ (++ ≥5 and <6)
O=C(NCCCN1CCC(F)CC1)c1ccc2c(c1)sc1nc(-c3cc4c(cc3F)CNC4)cn12 [compound 454, 2-(6-fluoroisoindolin-5-yl)-N-(3-(4-fluoropiperidin-1-yl)propyl)benzo[d]imidazo [2,1-b]thiazole-7-carboxamide] | +++ (+++ ≥6)
O=C(NCCCN1CCC(F)CC1)c1ccc2c(c1)sc1nc(-c3ccc(C4CCNC4)cc3F)cn12 (stereo not shown) [Compound 479, 2-(2-fluoro-4-(pyrrolidin-3-yl)phenyl)-N-(3-(4-fluoropiperidin-1-yl)propyl)benzo[d]imidazo[2,1-b]thiazole-7-carboxamide] | +++ (+++ ≥6)
Cc1cccc(-c2cn3c(n2)sc2cc(NC(=O)N4CCNCC4)ccc23)c1 [compound 265, N-(2-(m-tolyl)benzo[d]imidazo[2,1-b]thiazol-7-yl)piperazine-1-carboxamide] | + (+ >3 and <5)
O=C(NCCCN1CCCCC1)c1ccc2c(c1)sc1nc(-c3ccc([C@@H]4CCCN4)cc3)cn12 [compound 413, (S)-N-(3-(piperidin-1-yl)propyl)-2-(4-(pyrrolidin-2-yl)phenyl)benzo[d]imidazo [2,1-b]thiazole-7-carboxamide] | +++ (+++ ≥6)
O=C(NCCCN1CCCCCC1)c1ccc2c(c1)sc1nc(-c3ccccc3)cn12 [compound 103, N-(3-(azepan-1-yl)propyl)-2-phenylbenzo[d]imidazo[2,1-b]thiazole-7-carboxamide] | +++ (+++ ≥6)
CN[C@H]1C[C@H](NC(=O)c2ccc3c(c2)sc2nc(-c4cccc(C)c4)cn23)C1 [compound 158, N-((1r,3r)-3-(methylamino)cyclobutyl)-2-(m-tolyl)benzo[d]imidazo[2,1-b]thiazole-7-carboxamide formate] | ++ (++ ≥5 and <6)
NCc1ccc(-c2cn3c(n2)sc2cc(C(=O)NCCCN4CCCCC4)ccc23)cc1C(F)(F)F [compound 378, 2-(4-(aminomethyl)-3-(trifluoromethyl)phenyl)-N-(3-(piperidin-1-yl)propyl)benzo[d]imidazo [2,1-b]thiazole-7-carboxamide] | +++ (+++ ≥6)
